Data taken from the NIST ThermoML archive (doi:10.1021/acs.jced.7b00783).
± gives the expanded uncertainty stated by the source.

Details: Liquid, Ebulliometric method (Recirculating still)

## CCC(C)=O [butanone]
352.72 K
  vapor or sublimation pressure: 101.3 ± 0.46 kPa

## CCO [ethanol]
351.45 K
  vapor or sublimation pressure: 101.3 ± 0.46 kPa
